Data as given in patent publication US20100209846A1, “NEGATIVE-WORKING IMAGEABLE ELEMENTS” (priority 2009, published 2010).

Test: Solubility of contrast dye in water
Type: physicochemical

| Solubility of contrast dye in 1 liter water [g] | Compound |
| --- | --- |
| 0.25 | CCCCCCC(CCCCCC)c1ccc(/C=C2/C(=C(C#N)C#N)c3ccccc3S2(=O)=O)c(C)c1 |
| 4 | CN(C)c1ccc(C(=C2C=CC(=[N+](C)C)C=C2)c2ccc(N(C)C)cc2)cc1 [Crystal Violet] |
